From patent publication US8962032B2, “Modulator” (The Queen's University of Belfast, priority 2009, dated 2015)

Tested on: C57bl/6 bone marrow derived macrophages
Assay: LPS-induced TNFα and IL-6 in C57bl/6 BMDM with controls
Type: cell-based
Settings: C57bl/6 BMDM re-stimulated with 1 ng/ml LPS ± 25 μg/ml nanoparticles or controls
Method: FIG. 9 illustrates reduction of TNFα and IL-6 production from C57bl/6 bone marrow derived macrophages (BMDM) incubated with LPS and α2,8 sialic acid conjugated PLGA nanoparticles. The BMDM were stimulated with 1 ng/ml LPS overnight to up-regulate Siglec-E. Cells were washed twice in serum-free DMEM prior to resting for 2 hr. Cells were re-stimulated with 1 ng/ml LPS±α2,8 sialic acid conjugated PLGA nanoparticles (NP) or appropriate controls—Unconjugated (nude) NP, Sialic acid washed, but unconjugated NP, Sialic acid at same concentration as NP or nanoparticles conjugated to the non-Siglec binding glucosamine. TNFα and IL-6 was measured by ELISA. One way ANOVA was used to determine significance.
4×10^4/well C57bl/6 bone marrow derived macrophages were stimulated with 1 ng/ml LPS overnight to up-regulate Siglec-E. Cells were washed twice in serum-free DMEM prior to resting for 2 hr. The results of cells re-stimulated with 1 ng/ml LPS±α2,8 sialic acid conjugated PLGA nanoparticles (NP) or appropriate controls—Unconjugated (nude) nanoparticles, Sialic acid washed—but unconjugated nanoparticles, Sialic acid at same concentration as nanoparticles or nanoparticles conjugated to the non-Siglec binding glucosamine are shown. TNFα and IL-6 was measured by ELISA. One way ANOVA with post-hoc Tukey test was used to determine significance. P=0.001.

alpha 2-8 diacetylneuraminic acid [sialic acid]
IL-6 (ELISA): insufficient to cause the effect observed
TNFα (ELISA): insufficient to cause the effect observed
